Test [1] has as its system TMD8 cells. As to the kind of experiment: RT-qPCR of IRF4, BCL6, MYC mRNA. The class given is cell-based, human. As to conditions: 24 h. The method, then:
After culturing, total RNA was isolated from cells using the RNeasy Plus Mini Kit (Qiagen), then cDNA was prepared from total RNA using the SuperScript VILO cDNA Synthesis Kit (Invitrogen) following the kit instructions. For quantification of each mRNA expression level, PCR was performed using TaqMan Fast Universal PCR Master Mix (Thermo Fisher Scientific) under the following conditions with the AriaMx Real Time PCR System (Agilent Technologies): 95°C for 3 min, followed by 40 cycles at 95°C for 5 s and 60°C for 20 s with continuous fluorescence measurement. All PCRs were performed in triplicate, and the mRNA expression of GAPDH was used as an internal control. The results (fold changes of the threshold cycle [Ct] relative to the control group) were obtained using the 2^−ΔΔCt method. The TaqMan probes for IRF4 (Assay ID: Hs00180031_m1), BCL6 (Assay ID: Hs00153368_m1), MYC (Assay ID: Hs00153408_m1), and GAPDH (Assay ID: Hs02786624_g1) were purchased from Thermo Fisher Scientific. Statistical tests were performed with the SAS 9.4 (SAS Institute Japan Ltd., Tokyo, Japan) TS1M4-based EXSUS system version 10.1.3 (CAC Corporation, Tokyo, Japan). The t-test or Dunnett test was used to compare mRNA expression in the DMSO- and compound-treated groups. The statistical tests were two-sided with a 5% significance level.

The subject of test [2] is TMD8 cells. The test can be described thus: Western blot of IRF4, BCL6, c-MYC protein expression. The class given is cell-based, human. As to conditions: 24 h, 1 μM. As for the experimental part: After culturing, cells were harvested and lysed with cell lysis buffer (Cell Signaling Technology, Inc.) containing 1 mM AEBSF (Calbiochem, #101500). As a positive control of BTK autophosphorylation for western blot analysis, TMD8 cells were treated with hydrogen peroxide (H2O2; final concentration: 6 mM) for 10 min, harvested as a control sample, and then lysed with the cell lysis buffer.
Each mixture of cells and cell lysis buffer was incubated on ice for 5 min, then centrifuged at 13400 × g and 4°C for 10 min. Total lysates were loaded on 4%–12% SDS-PAGE (Bio-Rad) and transferred to a polyvinylidene difluoride (PVDF) membrane (Immobilon-P Transfer Membrane, Millipore Corporation). The blot was incubated in Tris-buffered saline with Tween 20 (TBS-T, Cell Signaling Technology, Inc.) containing 2 w/v% ECL Advance Blocking Agent (GE Healthcare Life Sciences, b) for 1 h at room temperature. The blocked PVDF membranes were immersed in TBS-T and washed three times with shaking at room temperature for 10 min. The membrane was incubated with primary antibody in TBS-T containing 2 w/v% ECL Advance Blocking Agent with gentle agitation overnight at 5°C in a cold storage room or for 1 h at room temperature. […] Lumino-image analyzer (LAS-1000 Plus system, Fuji Photo Film Co., Ltd.) and Image Reader LAS-1000 Lite version 1.3 (Fuji Photo Film Co., Ltd.) were used to visualize bands. […]

In a further test the test system is U-2932 cells. The test can be described thus: Cell viability assay (CellTiter-Glo). The class given is cell-based. The conditions noted are these: Homo sapiens, U2932, 72 h. As for the experimental part:
(§1) After incubation for 72 h at 37°C and 5% CO2/95% air, relative light units (RLU) were measured with the CellTiter-Glo Luminescent Cell Viability Assay (Promega, Madison, WI, USA). […] GraphPad Prism (version 5.01J or 5.04; GraphPad Software, Inc., San Diego, CA, USA) and its base settings were used for initial values and convergence conditions.

Test [3] has as its system TMD8 cells. The test can be described thus: Cell viability assay (CellTiter-Glo). It counts as cell-based. The conditions noted are these: Homo sapiens, 72 h. The method, then:
as §1

Test [4] has as its system BT system (B cells, peripheral blood mononuclear cells). As to the kind of experiment: BioMAP Diversity PLUS profiling, BT system. It counts as cell-based, human. The conditions noted are these: 120, 370, 1100, 3300 nM. As for the experimental part: In brief, cultures with one or more primary cell types from healthy human donors were treated with sets of stimulators specific to the cell subsets, and the optimized biomarker readouts for each system were measured by ELISA and other techniques, as listed in S1 Table. The assays included positive and negative controls as well as vehicle control. Results are presented as the log-transformed ratio of biomarker readouts for tirabrutinib-treated samples to vehicle controls.

Where [5] appears, read: tirabrutinib 1 μM, BMS-345541 10 μM, MK-2206 1 μM, refametinib 0.1 μM.
[6] abbreviates: at 100 nM, read-out: maximum growth inhibition rate.
[7] abbreviates: read-out: IC50 of growth inhibition.

“Also recorded” adds a separate entry of the source.

Consider one molecule from article PMC10004634 (PLOS ONE, 2023).

As for `CC#CC(=O)N1CC[C@@H](n2c(=O)n(-c3ccc(Oc4ccccc4)cc3)c3c(N)ncnc32)C1` [Tirabrutinib], the “BCL6 mRNA expression” value in the test on TMD8 cells [1] (1 μM) is “upregulated”. In the test on TMD8 cells [1] (setting [5]), the “IRF4 mRNA expression” value is on record as “downregulated; also recorded: strongly inhibited” and the “MYC mRNA expression” value is reported as “partially downregulated”. In the test on TMD8 cells [2], the BCL6 protein expression entry is “not changed”, the IRF4 protein expression result is reported as “downregulation” and the MYC protein expression result was “downregulation”. The inhibition (as a rule, the drop in the measured response relative to a control, in per cent) at 0.1 µM with U-2932 cells (setting [6]) worked out at 30.8%. Further, the IC50 (in general, the concentration that gives 50% inhibition) with U-2932 cells (setting [7]) is 27.6 nM. In the test on TMD8 cells [3] (setting [6]), the inhibition at 0.1 µM was 98.6%. The IC50 in the test with TMD8 cells [3] (setting [7]) is 3.59 nM. The “effect on the BT system (B-cell growth, production of IgG, IL-6, IL-17A, TNFα)” value in test [4] is listed as “concentration-dependent inhibitory effect”.
